Earlier results as cited in PubChem BioAssay AID1259410 (Chemical Carcinogenesis Research Information System (CCRIS), 2018).

Tested on: rodent tumor promotion studies, tumor incidence
Experiment: CCRIS tumor promotion studies
Settings: Route [Promoter]: DERMAL, Species: MOUSE

SMILES: CCCCCCCCCCCCCC(=O)O[C@@H]1[C@@H](C)[C@@]2(O)[C@@H](C=C(CO)C[C@]3(O)C(=O)C(C)=C[C@@H]23)[C@@H]2C(C)(C)[C@]12OC(C)=O
- outcome (Carcinogen: DIBENZO[A,L]PYRENE, 191-30-0, Doses [Carcinogen]: 0.25, 1 NMOL IN 100 µL ACETONE, Doses [Promoter]: 2.16 NMOL IN 100 µL ACETONE 2/WK FOR 27 WK BEGINNING 1 WK POST CARCINOGEN DOSE (STUDY DURATION: 28 WK), Route [Carcinogen]: DERMAL, Strain/Sex: SENCAR/FEMALE): skin: tumor
- outcome (Carcinogen: DIBENZO[A,L]PYRENE, 191-30-0, Doses [Carcinogen]: 1.33, 4, 12 NMOL IN 100 ML ACETONE ONCE, Doses [Carcinogen]: 1.33, 4, 12 NMOL IN 100 ML ACETONE ONCE, Doses [Promoter]: 1.62 NMOL IN 100 ML ACETONE 2/WK FOR 28 WK BEGINNING 1 WK POST CARCINOGEN DOSE (STUDY DURATION: 30 WK), Route [Carcinogen]: DERMAL, Strain/Sex: SENCAR/FEMALE): skin: tumor
- outcome (Carcinogen: DIBENZO[A,L]PYRENE, 191-30-0, Doses [Carcinogen]: 4, 20, 100 NMOL IN 100 µL ACETONE ONCE, Doses [Carcinogen]: 4, 20, 100 NMOL IN 100 µL ACETONE ONCE, Doses [Promoter]: 3.24 NMOL/100 µL ACETONE 2/WK BEGINNING 2 WK POST CARCINOGEN DOSE AND CONTINUING FOR 24 WK (STUDY DURATION: 27 WK), Route [Carcinogen]: DERMAL, Strain/Sex: SENCAR/FEMALE): skin: tumor
- outcome (Carcinogen: DIBENZO[A,L]PYRENE, 191-30-0, Doses [Carcinogen]: 33.3, 100, 300 NMOL IN 100 µL ACETONE ONCE, Doses [Carcinogen]: 33.3, 100, 300 NMOL IN 100 µL ACETONE ONCE, Doses [Promoter]: 3.24 NMOL/100 µL ACETONE ONCE 1 WK POST CARCINOGEN DOSE THEN 2/WK BEGINNING 3 WK LATER AND CONTINUING FOR 11 WK (STUDY D, Route [Carcinogen]: DERMAL, Strain/Sex: SENCAR/FEMALE): skin: tumor
- outcome (Carcinogen: DIMETHYLBENZ[A]ANTHRACENE, 57-97-6, Doses [Carcinogen]: 0.2 UMOL IN O.2 ML ACETONE ONCE, Doses [Promoter]: 0, 5 UG IN 0.2 ML ACETONE 3/WK ADMINISTERED 7 D POST CARCINOGEN DOSE AND CONTINUING FOR DURATION OF STUDY (STUDY DURATIO, Route [Carcinogen]: DERMAL, Strain/Sex: SWISS/FEMALE): skin: tumor, squamous cell papilloma, keratoacanthoma
- outcome (Carcinogen: N-METHYL-N'-NITRO-N-NITROSOGUANIDINE, 70-25-7, Doses [Carcinogen]: 4 UMOL IN 200 µL ACETONE ONCE, Doses [Promoter]: 0, 10 NMOL IN 200 µL ACETONE 2/WK FOR 52 WK BEGINNING 2 WK POST CARCINOGEN DOSE (STUDY DURATION: 52 WK), Route [Carcinogen]: DERMAL, Strain/Sex: C3H/CB/S/GEN/FEMALE): skin: tumor
- outcome (Carcinogen: N-METHYL-N'-NITRO-N-NITROSOGUANIDINE; 70-25-7; Doses [Carcinogen]: 4 UMOL IN 200 µL ACETONE ONCE; Doses [Promoter]: 0; 10 NMOL IN 200 µL ACETONE 2/WK FOR 52 WK BEGINNING 2 WK POST CARCINOGEN DOSE STUDY DURATION: 52 WK), Route [Carcinogen]: DERMAL, Strain/Sex: C3H/FEMALE): skin: tumor
- outcome (Carcinogen: PHENOXYOXIRANE, 79526-11-7, Doses [Carcinogen]: 5 UMOL IN 0.2 ML 15% DMSO IN ACETONE ONCE, Doses [Promoter]: 0, 15 NMOL IN 0.1 ML ACETONE ONCE 18-24 HR PRIOR TO CARCINOGEN DOSE THEN BEGINNING 1 WK LATER 2/WK FOR DURATION OF STUDY, Route [Carcinogen]: DERMAL, Strain/Sex: ICR/FEMALE): skin: papilloma
- outcome (Carcinogen: PHENYL VINYL ETHER, 766-94-9, Doses [Carcinogen]: 5 UMOL IN 0.2 ML 15% DMSO IN ACETONE ONCE, Doses [Promoter]: 0, 15 NMOL IN 0.1 ML ACETONE ONCE 18-24 HR PRIOR TO CARCINOGEN DOSE THEN BEGINNING 1 WK LATER 2/WK FOR DURATION OF STUDY, Route [Carcinogen]: DERMAL, Strain/Sex: ICR/FEMALE): skin: papilloma
- outcome (Carcinogen: SYN-1,2-DIHYDROXY-3,4-EPOXY-1,2,3,4-TETRAHYDRO-5,6-DIMETHYLCHRYSENE, 139562-15-5, Doses [Carcinogen]: 100 NMOL IN 0.1 ML ACETONE ONCE, Doses [Promoter]: 0, 2.5 UG IN 0.1 ML ACETONE 3/WK FOR 20 WK BEGINNING 10 D POST CARCINOGEN DOSE (STUDY DURATION: 20 WK), Route [Carcinogen]: DERMAL, Strain/Sex: CD-1/FEMALE): skin: tumor
- outcome (Carcinogen: THIRAM, 137-26-8, Doses [Carcinogen]: 100 MG/KG BW 3/WK FOR 3 WK, Doses [Promoter]: 0, 5 UG IN 100 µL ACETONE 3/WK FOR 51 WK BEGINNING 1 WK POST CARCINOGEN TREATMENT (STUDY DURATION: 54 WK), Route [Carcinogen]: DERMAL, Strain/Sex: SWISS/FEMALE): skin: tumor
- outcome (Carcinogen: THIRAM, 137-26-8, Doses [Carcinogen]: 100 MG/KG BW IN 100 µL DMSO ONCE, Doses [Promoter]: 5 UG IN 100 µL ACETONE 3/WK BEGINNING 1 WK POST CARCINOGEN DOSE (STUDY DURATION: 52 WK), Route [Carcinogen]: DERMAL, Strain/Sex: SWISS/MALE): skin: tumor
- outcome (Carcinogen: THIRAM, 137-26-8, Doses [Carcinogen]: 100 MG/KG BW IN 100 µL DMSO ONCE, Doses [Promoter]: 5 UG IN 100 µL ACETONE 3/WK FOR 3 WK BEGINNING 1 WK POST CARCINOGEN DOSE (STUDY DURATION: 52 WK), Route [Carcinogen]: DERMAL, Strain/Sex: SWISS/FEMALE): skin: tumor
- outcome (Carcinogen: THIRAM, 137-26-8, Doses [Carcinogen]: 100 MG/KG BW IN 100 µL DMSO ONCE, Doses [Promoter]: 5 UG IN 100 µL ACETONE 3/WK FOR 51 WK BEGINNING 1 WK POST CARCINOGEN DOSE (STUDY DURATION: 52 WK), Route [Carcinogen]: DERMAL, Strain/Sex: SWISS/MALE): skin: tumor
- outcome (Carcinogen: TRANS-4,5-DIHYDROBENZO[J]FLUORANTHENE-4,5-DIOL, 106542-80-7, Doses [Carcinogen]: 0, 1, 3 UMOL (TOTAL DOSE) IN ACETONE SOLUTION 1/2 D FOR 10 DOSES, Doses [Carcinogen]: 0, 1, 3 UMOL (TOTAL DOSE) IN ACETONE SOLUTION 1/2 D FOR 10 DOSES, Doses [Promoter]: 2.5 UG IN ACETONE 3/WK BEGINNING 10 D POST LAST CARCINOGEN DOSE AND CONTINUING FOR 20 WK (STUDY DURATION: 23 WK), Route [Carcinogen]: DERMAL, Strain/Sex: CD-1/FEMALE): skin: tumors
- outcome (Carcinogen: TRANS-9,10-DIHYDRO-5,9,10-TRIHYDROXYBENZO[B]FLUORANTHENE, 114451-04-6, Doses [Carcinogen]: 0, 0.04, 0.12, 0.4 UMOL (TOTAL DOSE) APPLIED IN SUBDOSES 1/2 D FOR 5 WK, Doses [Carcinogen]: 0, 0.04, 0.12, 0.4 UMOL (TOTAL DOSE) APPLIED IN SUBDOSES 1/2 D FOR 5 WK, Doses [Promoter]: 2.5 UG IN 100 µL ACETONE 3/WK FOR 20 WK BEGINNING 10 D POST LAST CARCINOGEN DOSE (STUDY DURATION: 26 WK), Route [Carcinogen]: DERMAL, Strain/Sex: CD-1/FEMALE): skin: tumor
- outcome (Carcinogen: TRANS-9,10-DIHYDRO-6,9,10-TRIHYDROXYBENZO[B]FLUORANTHENE, 114451-05-7, Doses [Carcinogen]: 0, 0.4 UMOL (TOTAL DOSE) APPLIED IN SUBDOSES 1/2 D FOR 5 WK, Doses [Promoter]: 2.5 UG IN 100 µL ACETONE 3/WK FOR 20 WK BEGINNING 10 D POST LAST CARCINOGEN DOSE (STUDY DURATION: 26 WK), Route [Carcinogen]: DERMAL, Strain/Sex: CD-1/FEMALE): skin: tumor
- outcome (Carcinogen: TRANS-9,10-DIHYDROBENZO[J]FLUORANTHENE-9,10-DIOL, 76479-14-6, Doses [Carcinogen]: 0, 3 UMOL (TOTAL DOSE) IN ACETONE SOLUTION 1/2 D FOR 10 DOSES, Doses [Promoter]: 2.5 UG IN ACETONE 3/WK BEGINNING 10 D POST LAST CARCINOGEN DOSE AND CONTINUING FOR 20 WK (STUDY DURATION: 23 WK), Route [Carcinogen]: DERMAL, Strain/Sex: CD-1/FEMALE): skin: tumors
- outcome (Carcinogen: VINYL CARBAMATE EPOXIDE, 82617-23-0, Doses [Carcinogen]: 0, 5.8, 11.5 UMOL IN 0.2 ML 15% DMSO 1/WK FOR 5 WK, Doses [Carcinogen]: 0, 5.8, 11.5 UMOL IN 0.2 ML 15% DMSO 1/WK FOR 5 WK, Doses [Promoter]: 0, 2.5 UG IN 0.1 ML ACETONE 18-24 HR PRIOR TO EACH CARCINOGEN DOSE THEN 2/WK FOR DURATION OF STUDY (STUDY DURATION: 22 W, Route [Carcinogen]: DERMAL, Strain/Sex: CD-1/FEMALE): skin: papilloma
- outcome (Carcinogen: VINYL CARBAMATE EPOXIDE, 82617-23-0, Doses [Carcinogen]: 1.5, 11.5 UMOL IN 0.2 ML 15% DMSO ONCE, Doses [Promoter]: 0, 2.5 UG IN 0.1 ML ACETONE 18-24 HR PRIOR TO CARCINOGEN DOSE THEN 2/WK FOR DURATION OF STUDY (STUDY DURATION: 22 WK), Route [Carcinogen]: DERMAL, Strain/Sex: CD-1/FEMALE): skin: papilloma
- outcome (Carcinogen: VINYL CARBAMATE, 15805-73-9, Doses [Carcinogen]: 0, 5.8, 11.5 UMOL IN 0.2 ML 15% DMSO 1/WK FOR 5 WK, Doses [Carcinogen]: 0, 5.8, 11.5 UMOL IN 0.2 ML 15% DMSO 1/WK FOR 5 WK, Doses [Promoter]: 0, 2.5 UG IN 0.1 ML ACETONE 18-24 HR PRIOR TO EACH CARCINOGEN DOSE THEN 2/WK FOR DURATION OF STUDY (STUDY DURATION: 22 W, Route [Carcinogen]: DERMAL, Strain/Sex: CD-1/FEMALE): skin: papilloma
- outcome (Carcinogen: VINYL CARBAMATE, 15805-73-9, Doses [Carcinogen]: 1.15, 11.5 UMOL IN 0.2 ML 15% DMSO ONCE, Doses [Promoter]: 0, 2.5 UG IN 0.1 ML ACETONE 18-24 HR PRIOR TO CARCINOGEN DOSE THEN 2/WK FOR DURATION OF STUDY (STUDY DURATION: 22 WK), Route [Carcinogen]: DERMAL, Strain/Sex: CD-1/FEMALE): skin: papilloma
- outcome (Carcinogen: X-RAY, Doses [Carcinogen]: 4.2 GY TO MALE MICE OF THE PARENT GENERATION, Doses [Promoter]: 0, 6.15 UG IN 0.1 ML ACETONE 2/WK FOR 24 WK ADMINISTERED TO F1 OFFSPRING OF IRRADIATED MALES BEGINNING AT 4 MO OF AGE (S, Route [Carcinogen]: WHOLE-BODY IRRADIATION, Strain/Sex: SHR/FEMALE): skin: tumor
- outcome (Carcinogen: X-RAY, Doses [Carcinogen]: 4.2 GY TO MALE MICE OF THE PARENT GENERATION, Doses [Promoter]: 0, 6.15 UG IN 0.1 ML ACETONE 2/WK FOR 24 WK ADMINISTERED TO F1 OFFSPRING OF IRRADIATED MALES BEGINNING AT 4 MO OF AGE (S, Route [Carcinogen]: WHOLE-BODY IRRADIATION, Strain/Sex: SHR/MALE): skin: tumor
- outcome (Carcinogen: X-RAY, Doses [Carcinogen]: 4.2 GY TO MALE MICE OF THE PARENT GENERATION, Doses [Promoter]: 0, 6.15 UG IN 0.1 ML ACETONE 2/WK FOR 24 WK ADMINISTERED TO F2 GENERATION OF IRRADIATED MALES BEGINNING AT 4 MO OF AGE (, Route [Carcinogen]: WHOLE-BODY IRRADIATION, Strain/Sex: SHR/FEMALE): skin: tumor
- outcome (Carcinogen: X-RAY, Doses [Carcinogen]: 4.2 GY TO MALE MICE OF THE PARENT GENERATION, Doses [Promoter]: 0, 6.15 UG IN 0.1 ML ACETONE 2/WK FOR 24 WK ADMINISTERED TO F2 GENERATION OF IRRADIATED MALES BEGINNING AT 4 MO OF AGE (, Route [Carcinogen]: WHOLE-BODY IRRADIATION, Strain/Sex: SHR/MALE): skin: tumor
